# Experimental data from patent US5851994A, “Compositions that inhibit wound contraction and methods of using same” (La Jolla Cancer Research Foundation, priority 1995, dated 1998).
# B1: biglycan: proteoglycan with core protein sequence closely related to decorin (protein, UniProt P21810 38-368, looked up)
# Biglycan: DEEASGADTSGVLDPDSVTPTYSAMCPFGCHCHLRVVQCSDLGLKSVPKEISPDTTLLDLQNNDISELRKDDFKGLQHLYALVLVNNKISKIHEKAFSPLRKLQKLYISKNHLVEIPPNLPSSLVELRIHDNRIRKVPKGVFSGLRNMNCIEMGGNPLENSGFEPGAFDGLKLNYLRISEAKLTGIPKDLPETLNELHLDHNKIQAIELEDLLRYSKLYRLGLGHNQIRMIENGSLSFLPTLRELHLDNNKLARVPSGLPDLKLLQVVYLHSNNITKVGVNDFCPMGFGVKRAYYNGISLFNNPVPYWEVQPATFRCVTDRLAIQFGNYKK
# B2: decorin: proteoglycan produced by fibroblasts, core protein about 40 kDa; produced in decorin-expressing CHO cells (protein, UniProt P07585 31-359, looked up)
# Decorin: DEASGIGPEVPDDRDFEPSLGPVCPFRCQCHLRVVQCSDLGLDKVPKDLPPDTTLLDLQNNKITEIKDGDFKNLKNLHALILVNNKISKVSPGAFTPLVKLERLYLSKNQLKELPEKMPKTLQELRAHENEITKVRKVTFNGLNQMIVIELGTNPLKSSGIENGAFQGMKKLSYIRIADTNITSIPQGLPPSLTELHLDGNKISRVDAASLKGLNNLAKLGLSFNSISAVDNGSLANTPHLRELHLDNNKLTRVPGGLAEHKYIQVVYLHNNNISVVGSSDFCPPGHNTKKASYSGVSLFSNPVQYWEIQPSTFRCVYVRSAIQLGNYK
# B3: denatured decorin: denatured decorin, compared with native/intact decorin (protein, UniProt P07585 31-359, looked up)
# Decorin: B2 Decorin
# modifications: denatured
# B4: Decorin that had been reduced and alkylated: decorin incubated with dithiothreitol, then iodoacetamide (protein, UniProt P07585 31-359, looked up)
# Decorin: B2 Decorin
# modifications: reduced and alkylated
# notes: decorin incubated with dithiothreitol, then iodoacetamide
# How the values were obtained:
# CTT-18 cells = test: Peptide collagen gel contraction assay; assay type: cell-based, human; conditions: FIG. 4, gel area over time
# Protocol: CTT-18 cells, which are a normal human colon fibroblast cell line available from ATCC (#1459-CRL), were used in the gel contraction assays. Subconfluent CTT-18 cells were harvested by trypsinization, neutralized with soybean trypsin inhibitor, then washed several times with serum-free Dulbecco's modified Eagle's medium (DMEM). The cells were resuspended at 5×10^6 cells/ml in DMEM.
# The collagen solution was prepared by combining the following reagents in the stated order: 1× DMEM, 1× insulin/transferrin/selenium (ITS; Collaborative Research; Bedford Mass.), 25 mM HEPES, 2.5 mg/ml rat tail collagen I (Collaborative Research). The solution was adjusted to pH 7.4 using 2M NaOH and deionized water was added to the appropriate final volume. Finally, 5×10^4 cells/ml (DMEM) were added to the solution and 0.6 ml of the combined solution was added to each well of a 24 well plate. The solution was allowed to gel for 1 hr at 37° C.
# Peptides were diluted to 4.5 mM in 1× DMEM/1× ITS/1× penicillin/1× streptomycin and the solution was adjusted to pH 7.4. Each gel was overlayed with 0.6 ml peptide solution and the gel periphery was rimmed to release the gel from the edge of the well. The gels were incubated at 37° C. and each gel area was monitored daily by planimetry using a computerized planimetry program (Digitize, Macintosh).
# In addition to determining the area of a gel, a replicate gel for each experimental condition was examined each day for cell viability. To determine cell viability, the overlay media was removed and replaced with 4 mg/ml collagenase type 2 (Worthington Biochemical; Freehold N.J.) in collagen digestion buffer (0.13M NaCl, 0.01M Ca acetate, 0.02M HEPES, pH 7.2). The sample was incubated at 37° C. until digestion was complete (about 1 hr). The solution was centrifuged at 3000 rpm in a microcentrifuge for 5 min and the pellet resuspended in trypsin/EDTA and incubated for 20 min at 37° C. The solution again was centrifuged, the pellet resuspended in 40 μl 0.4% trypan blue and the viable cells were counted in a hemocytometer. In general, the variations in cell viability were slight, and it was unnecessary to correct the gel contraction results due to significant differences in cell viability.
# collagen gels = conditions: Grinnell et al. 1989; U.S. Pat. No. 4,957,902; cited from earlier work
# [1] = system: NIH 3T3 mouse fibroblasts; test: Decorin collagen gel contraction assay, NIH 3T3 cells; assay type: cell-based; conditions: for collagen gel contraction versus control level: 10 ng/ml PDGF, 20 ng/ml acidic FGF, without decorin
# Protocol: NIH 3T3 mouse fibroblasts (ATCC #CRL 1658) and WI38 human fibroblasts (ATCC #CL75) were used in these assays and passaged in culture as prescribed.
# Cells were collected by washing the cells with sterile PBS, then incubating the cells for 5 min at 37° C. with trypsin-EDTA (200 mg versene and 500 mg trypsin/liter Hank's balanced salt solution; Gibco/BRL; Gaithersburg MD). Following incubation, cells were removed by aspiration with a pipet and DMEM supplemented with 10% FBS (BioWhittaker; Walkersville Md.) was added to neutralize the trypsin. Cells were centrifuged for 8 min at 1200 rpm, decanted, washed 3× with serum-free DMEM and resuspended in serum-free DMEM to the following concentrations: NIH 3T3 cells, 3.0×10^6 cells/ml; WI38 cells, 1.0×10^6 cell/ml.
# The following reagents were added on ice to generate a total of 24 gels: 3.6 ml 5× DMEM (Gibco/BRL), 1.0 ml 1M HEPES (Sigma), 0.74 ml 0.5M NaOH, 2.0 ml cell suspension in serum-free DMEM, 7.6 ml rat tail collagen I (3.81 mg/ml; Collaborative Research). The collagen mixture was quickly added to a mixture of 4.8 ml decorin and water to yield the appropriate decorin concentration and 0.7 ml was added to each well of a 24 well microtiter dish that previously had been coated with 2% bovine serum albumin in PBS. The gels were allowed to solidify for 1 hr at 37° C. in a humidified incubator, then were released from the edges of the well by tapping or by rimming with a pipet tip.
# Gels were transferred aseptically using forceps from the microtiter plate into a Nunc six well plate. Three gels were transferred into each 33 mm well. Prior to transfer, each well received 1 ng/ml TGFβ (from porcine platelets; R&D Systems; Minneapolis Minn.). […] The plates were rocked in a humidified incubator at 37° C. and 7% CO2 for the length of the experiment. The area of the gels was measured daily using photographs from an image analyzer and planimetry.
# collagen [2] = test: Binding to collagen
# collagen [3] = test: Effect on collagen fibril structure
molecule,measurement,setting,value
"N=C(N)NCCC[C@H](N)C(=O)O [mono-arginine, arginine]",inhibition of gel contraction,CTT-18 cells,did not inhibit gel contraction
same,inhibition of gel contraction,CTT-18 cells; listed as Arg 1,do not inhibit collagen gel contraction
GRGESP,effect on contraction of collagen gels,collagen gels,inhibited contraction of collagen gels
PDGF,collagen gel contraction versus control level,"[1]; 1 ng/ml TGFβ, FIG. 6",increased the amount of collagen gel contraction above the control level
TGFβ: growth factor from porcine platelets (R&D Systems) that stimulates contraction,collagen gel contraction versus control level,"[1]; 1 ng/ml TGFβ, FIG. 6",increased the amount of collagen gel contraction above the control level
same,contraction of a collagen/NIH 3T3 gel,"[1]; 1.0 ng/ml TGFβ, 24 hr, 0 μg/ml decorin",approximately 60%
acidic FGF: acidic fibroblast-derived growth factor (R & D Systems),collagen gel contraction versus control level,"[1]; 1 ng/ml TGFβ, FIG. 6",increased the amount of collagen gel contraction above the control level
di-arginine,inhibition of gel contraction,CTT-18 cells,did not inhibit gel contraction
same,inhibition of gel contraction,CTT-18 cells; listed as Arg 2,do not inhibit collagen gel contraction
tri-arginine,inhibition of gel contraction,CTT-18 cells,did not inhibit gel contraction
same,inhibition of gel contraction,CTT-18 cells; listed as Arg 3,do not inhibit collagen gel contraction
B1,collagen binding,collagen [2],can bind to collagen in the gel contraction assays
B2,gel contraction in the presence of growth factors,"[1]; 200 μg decorin per ml gel, 1 ng/ml TGFβ, 10 ng/ml PDGF or 20 ng/ml acidic FGF, FIG. 6",reduced or inhibited the level of gel contraction
same,gel contraction at 200 μg per ml decorin,"[1]; collagen/NIH 3T3 gel, 1 ng/ml TGFβ, 24 hr",no gel contraction was observed
same,gel contraction with increasing concentrations of decorin in the gel,"[1]; collagen/NIH 3T3 gel, 1 ng/ml TGFβ, 24 hr, FIG. 5",reduced or inhibited gel contraction
B3,inhibition of gel contraction compared with intact decorin,[1]; cells not given,retains some ability to inhibit gel contraction
same,collagen binding,collagen [2],binds collagen to the same extent as nondenatured decorin
same,effect on fibril structure,collagen [3],does not affect fibril structure
B4,gel contraction,"[1]; reduced and alkylated form, data not shown",inhibited gel contraction
